From PubChem BioAssay (NCI) come the findings set out here.

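In this assay, cells in 96-well plates receive the compound at five concentrations for 48 hours. Endpoints are linearly interpolated between the surrounding concentrations. Here, GI50 denotes the concentration required for 50% inhibition of growth. TGI is the concentration that stops growth completely.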

Common to all, as to assay: NCI tumour cell line growth inhibition, 48 h
Test [1] has as its system SNB-75 CNS.
Test [2] concerns HS 578T breast.
For test [3], the system named is M14 melanoma.
Test [4] concerns SF-539 CNS.
Test [5] concerns NCI-H522 lung.
Test [6] has as its system OVCAR-8 ovarian.
Test [7] deals with HT29 colon.
The subject of test [8] is SK-MEL-2 melanoma.
In test [9] the test system is IGROV1 ovarian.
The test system of test [10] is EKVX NSCLC.

With `Cn1ncc2cc(-c3cnc(N)c(Cl)c3N3CCC4(CCNC4=O)CC3)ccc21`, the GI50 in test [1] is 17 µM; in test [2], 19.8 µM; in [3], 41.4 µM; in test [4] it was 14.1 µM; in test [5], 60.7 µM; in [6] it was 39.1 µM. For the same compound, the GI50 in test [7] was 46.2 µM; in test [8], 39.8 µM; in test [9] it was 14.8 µM; in test [10], 12.9 µM. Besides, the TGI was 77.8 µM in [1]; 89.5 µM in [2]; > 100 µM in test [3]; > 100 µM in test [4]; > 100 µM in test [5]; > 100 µM in [6]. Besides, the TGI in test [7], in test [8], in test [9] and in [10] was > 100 µM throughout.

Consider `C[C@]12CC[C@H](O)CC1=CC[C@@H]1[C@@H]2CC[C@]2(C)C(=O)/C(=C/c3cccc(OCCCn4ccnc4)c3)C[C@@H]12`, for which the GI50 was 19.7 µM in test [1]; 21.5 µM in test [2]; 18.5 µM in [3]; 18.7 µM in test [4]; 16.6 µM in [5]; 17.7 µM in test [6]. The GI50 was 7.53 µM in test [7], 19.9 µM in test [8], 19.4 µM in test [9] and 21.1 µM in [10]. Also, the TGI in [1] turned out to be 38.4 µM; in test [2], 54.2 µM; in [3], 33.2 µM; in test [4], 35.5 µM; in [5], 34.2 µM; in test [6], 32.8 µM. In addition, the TGI in [7] stood at 27 µM; in [8] it was 51 µM; in test [9], 46.2 µM; in test [10], 46.3 µM.

Turning to `O=C1OCC(c2ccc(O)c(O)c2)=C1c1cc(O)c(O)c(O)c1`, the GI50 was 54 µM in [1]; 87.9 µM in test [2]; 23.9 µM in test [3]; 22.8 µM in [4]; 47.4 µM in test [5]; 75 µM in test [6]. For the same compound, the GI50 in [7] is 32.5 µM; in [9], 37.4 µM; in test [10], 70.6 µM. Also, the TGI in [1] is > 100 µM; in test [2], > 100 µM; in test [3], 69.7 µM; in test [4], 47.9 µM; in [5], > 100 µM; in [6], > 100 µM. Also, the TGI in [7] is 98.2 µM; in test [9] it was > 100 µM; in test [10], > 100 µM.

On to `CS(=O)(=O)c1nccc(-c2c(-c3cccc(OCc4ccc(F)cc4)c3)nc3sccn23)n1`, for which the GI50 in test [1] was > 39.5 µM; in [2], 14.3 µM; in [3], 25.9 µM; in [4], > 94 µM; in test [5], 8.15 µM; in test [6], 59.9 µM. Besides, the GI50 in test [7] was 53.9 µM; in test [8], > 100 µM; in [9], 11.2 µM; in test [10], 26.4 µM. Also, the TGI was > 83.1 µM in test [1]; > 100 µM in [2]; > 100 µM in test [3]; > 100 µM in test [4]; > 100 µM in test [5]; > 100 µM in test [6]. The TGI in test [7], in [8], in test [9] and in test [10] was > 100 µM throughout.

For the compound `O=C1C(=O)c2ccc(Br)cc2-c2cc(Br)ccc21`, the GI50 in test [1] was > 54.6 µM; in test [2] it was 8.27 µM; in test [3], 6.34 µM; in [4], 8.43 µM; in test [5] it was 0.407 µM; in test [6], 0.852 µM. Besides, the GI50 in test [7] was > 74.3 µM; in [8], 10.4 µM; in test [9], 6.57 µM; in [10], > 100 µM. Moreover, the TGI in test [1] is > 100 µM; in [2], > 78.9 µM; in test [3], > 66.6 µM; in [4] it was 26.3 µM; in [5] it was 1.74 µM; in test [6] it was 2.57 µM. Besides, the TGI in test [7] is > 100 µM; in test [8] it was > 100 µM; in [9], 29.5 µM; in [10], > 100 µM.

As to `COc1ccc(-c2cc3cccc(OC)c3c(=O)o2)cc1OC`, the GI50 in test [1] is 53.1 µM; in test [2] it was 12.7 µM; in test [3] it was 93.9 µM; in test [4], 0.559 µM; in test [5], 48.6 µM; in test [6], > 100 µM. Further, the GI50 in test [7] was 8.49 µM; in [8] it was > 100 µM; in test [9] it was > 100 µM; in [10], 0.83 µM. Also, the TGI in test [1] is > 100 µM; in test [2], > 100 µM; in test [3], > 100 µM; in test [4], 22.9 µM; in [5], > 100 µM; in [6], > 100 µM. Also, the TGI in [7] is > 100 µM; in test [8] it was > 100 µM; in test [9] it was > 100 µM; in test [10], 39.5 µM.

`CC(C)C1CN1CC(O)Cn1ccnc1[N+](=O)[O-]` (centres undefined): the TGI in test [1], in test [2], in test [3], in [4], in [5] and in [6] was > 100 µM each time. The TGI in test [7], in test [8], in [9] and in test [10] was > 100 µM each time.

For the compound `CCC(=O)Sc1ccccc1C(=O)Nc1ccc(Cl)cc1`, the GI50 in test [1] is 19.2 µM; in test [2] it was 15.9 µM; in test [3] it was 6.42 µM; in test [4] it was 11.2 µM; in test [5], 6.21 µM; in [6], 17.4 µM. For the same compound, the GI50 in test [7] is 7.09 µM; in test [8], 25.7 µM; in test [9], 13.7 µM; in [10] it was 7.16 µM. The TGI in test [1] is 98.2 µM; in test [2], 66.4 µM; in [3], 43.9 µM; in test [4], 30.5 µM; in test [5] it was 27.1 µM; in test [6], > 100 µM. For the same compound, the TGI in test [7] is 44.5 µM; in test [8] it was > 100 µM; in test [9] it was > 100 µM; in [10], 75.2 µM.

Turning to `CC1(C)CCC(S(=O)(=O)c2ccc3c(c2)/C(=N\O)c2cc(S(=O)(=O)N4CCC(O)(c5cccc(C(F)(F)F)c5)CC4)ccc2-3)CC1`, the GI50 in test [1] was 0.0158 µM; in [2] it was 0.0287 µM; in test [3], 0.019 µM; in test [4] it was 0.0204 µM; in test [5] it was 0.0198 µM; in test [6], 0.034 µM. The GI50 was 0.0257 µM in [7], 0.0179 µM in test [8], 0.0491 µM in test [9] and 0.0329 µM in test [10]. For the same compound, the TGI in test [1] turned out to be 0.0349 µM; in [2] it was 0.0749 µM; in test [3] it was 0.0375 µM; in test [4] it was 0.0448 µM; in test [5] it was 0.0452 µM; in [6] it was 0.112 µM. In addition, the TGI is 0.0723 µM in test [7], 0.0364 µM in test [8], 1.07 µM in test [9] and 0.408 µM in test [10].

Turning to `OCC1SC(n2cnc3cncnc32)C(O)C1O` (centres undefined), the GI50 is > 100 µM in [1]; > 100 µM in [2]; > 100 µM in [3]; > 100 µM in test [4]; > 100 µM in test [5]; 85.2 µM in test [6]. The GI50 in test [7], in [8], in test [9] and in [10] was > 100 µM each time. The TGI in [1], in [2], in test [3], in test [4], in [5] and in test [6] was > 100 µM each time. The TGI in [7], in test [8], in test [9] and in [10] was > 100 µM throughout.

As for `COc1ccc(C(CC(=O)c2ccccc2)C(C(=O)c2ccccc2)C(c2ccc(OC)cc2)C2C(=O)NC(=O)NC2=O)cc1` (centres undefined), the GI50 in test [1] was 32.6 µM; in test [2] it was 25.9 µM; in test [3], 19.8 µM; in test [4] it was 17.8 µM; in test [5] it was 16.2 µM; in test [6], 24.7 µM. The figures for the GI50 in test [8], in test [9] and in test [10] were 38.5 µM, 13.2 µM and 12.5 µM, respectively. Further, the TGI in test [1] is > 100 µM; in test [2] it was > 100 µM; in [3] it was 60.8 µM; in test [4], 63.2 µM; in [5] it was 72.6 µM; in [6], 68.7 µM. Also, the TGI in test [8], in [9] and in test [10] was > 100 µM each time.

Take `COc1cc2c(cc1OC)C13CCN4CC5=CCOC(CC(=O)O)C(C5CC41)C3N2` (centres undefined): the TGI in test [2], in test [3], in [4], in test [5], in test [6] and in [7] was > 100 µM throughout. The TGI in test [8], in [9] and in [10] was > 100 µM in each case.

As for `Cc1oc2ccccc2c(=O)c1Cn1nnc2ccccc21`, the TGI in [1], in test [2], in test [3], in [4], in [6] and in test [7] was > 100 µM each time. Moreover, the TGI in test [8] and in test [10] was > 100 µM each time.

For `Nc1ccccc1C#C/C=C\C#Cc1ccc(F)cc1F`, the GI50 in [2] was 13.2 µM; in test [3], 16.5 µM; in test [4] it was 7.22 µM; in test [5] it was 13.8 µM; in test [6], 25.2 µM; in test [7], 31.1 µM. The results for the GI50 in [8], in [9] and in test [10] were 23 µM, 12.7 µM and 19.4 µM, respectively. For the same compound, the TGI in [2] was 30.5 µM; in test [3], 32 µM; in test [4], 22.4 µM; in test [5], 35.2 µM; in [6], 84.3 µM; in test [7], > 100 µM. Further, the values for the TGI in test [8], in test [9] and in test [10] were 58.1 µM, 40.7 µM and 57.8 µM, respectively.

Consider `O=S(=O)(Nc1ccc(-c2nc(-c3cccc(OCCN4CCOCC4)c3)c(-c3ccnc(Br)c3)[nH]2)cc1)c1ccccc1`, for which the GI50 is 1.47 µM in test [2]; 2.09 µM in [3]; 3.68 µM in test [4]; 3.14 µM in test [5]; 3.27 µM in test [6]; 2.59 µM in test [8]. The GI50 is 3.98 µM in [9] and 3.4 µM in [10]. Besides, the TGI in test [2] is 4.37 µM; in test [3], 5.55 µM; in [4], > 100 µM; in [5] it was > 100 µM; in [6], > 100 µM; in test [8] it was 6.87 µM. The TGI in test [9] and in [10] was > 100 µM throughout.

Take `CC1OCC2OC(C)OC(C3C4=C(CC(C)(C)CC4=O)OC4=C3C(=O)CC(C)(C)C4)C2O1` (centres undefined): the TGI in [1], in test [2], in [3], in test [4], in test [5] and in test [6] was > 100 µM each time. Besides, the TGI in test [7], in [8] and in test [10] was > 100 µM each time.

Consider `CN(C(=O)C1CCCCC1)c1ccccc1I(=O)=O`, for which the GI50 in test [1] was 34.6 µM; in test [2], 52.9 µM; in test [4], 39.2 µM; in test [5] it was 16.3 µM; in test [6], 74.8 µM; in test [7] it was 33.8 µM. In addition, the values for the GI50 in test [8], in test [9] and in [10] were > 100 µM, 52.2 µM and 43.4 µM, respectively. Also, the TGI in [1] is > 100 µM; in test [2], > 100 µM; in test [4], > 100 µM; in [5], 30.2 µM; in test [6], > 100 µM; in [7], > 100 µM. Besides, the TGI in test [8], in test [9] and in [10] was > 100 µM throughout.
